Measurements published in patent US8802597B2, “Herbicidal pyrimidines” (E I du Pont de Nemours and Company, priority 2003, dated 2014).

Key:
[1] = test system: Italian ryegrass (Lolium multiflorum); assay: Test C postemergence; type: in vivo; conditions: for Plant response rating, Ryegrass, Italian: scale 0 to 100; for pest or weed control at 62 g/ha / pest or weed control at 125 g/ha: Lolium multiflorum, post-emergence, scale 0 to 100 (0 no effect, 100 complete control), read-out: Ryegrass, Italian plant response rating; for pest or weed control at 62 g/ha: 62 g ai/ha; for pest or weed control at 125 g/ha: 125 g ai/ha
How it was run: (§1)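 Seeds sown and sprayed preemergence with test compound in non-phytotoxic solvent containing surfactant; postemergence sprays, same formulation, went onto plants 2 to 18 cm tall (1- to 4-leaf stage). Plants held in greenhouse 12 to 14 days, then visually rated against untreated controls on a 0–100 scale (0 no effect, 100 complete control).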

[2] = test system: blackgrass (Alopecurus myosuroides); assay: Test C postemergence; type: in vivo; conditions: for Plant response rating, Blackgrass: scale 0 to 100; for pest or weed control at 62 g/ha: Alopecurus myosuroides, post-emergence, 62 g ai/ha, scale 0 to 100 (0 no effect, 100 complete control), read-out: Blackgrass plant response rating
How it was run: as §1

[3] = test system: canarygrass (Phalaris minor); assay: Test C postemergence; type: in vivo; conditions: for Plant response rating, Canarygrass: scale 0 to 100; for pest or weed control at 62 g/ha: Phalaris minor, post-emergence, 62 g ai/ha, scale 0 to 100 (0 no effect, 100 complete control), read-out: Canarygrass plant response rating
How it was run: as §1

[4] = test system: downy brome (Bromus tectorum); assay: Test C postemergence; type: in vivo; conditions: for Plant response rating, Bromegrass, Downy: scale 0 to 100; for pest or weed control at 62 g/ha: Bromus tectorum, post-emergence, 62 g ai/ha, scale 0 to 100 (0 no effect, 100 complete control), read-out: Bromegrass, Downy plant response rating
How it was run: as §1

[5] = test system: green foxtail (Setaria viridis); assay: Test C postemergence; type: in vivo; conditions: for Plant response rating, Foxtail, Green: scale 0 to 100; for pest or weed control at 62 g/ha / pest or weed control at 125 g/ha: Setaria viridis, post-emergence, scale 0 to 100 (0 no effect, 100 complete control), read-out: Foxtail, Green plant response rating; for pest or weed control at 62 g/ha: 62 g ai/ha; for pest or weed control at 125 g/ha: 125 g ai/ha
How it was run: as §1

[6] = test system: wheat (Triticum aestivum); assay: Test C postemergence; type: in vivo; conditions: for Plant response rating, Wheat: scale 0 to 100; for plant injury at 62 g/ha / plant injury at 125 g/ha: Triticum aestivum, post-emergence, scale 0 to 100 (0 no effect, 100 complete control), read-out: Wheat plant response rating; for plant injury at 62 g/ha: 62 g ai/ha; for plant injury at 125 g/ha: 125 g ai/ha
How it was run: as §1

[7] = test system: wild oat (Avena fatua); assay: Test C postemergence; type: in vivo; conditions: for Plant response rating, Oat, Wild: scale 0 to 100; for pest or weed control at 62 g/ha / pest or weed control at 125 g/ha: Avena fatua, post-emergence, scale 0 to 100 (0 no effect, 100 complete control), read-out: Oat, Wild plant response rating; for pest or weed control at 62 g/ha: 62 g ai/ha; for pest or weed control at 125 g/ha: 125 g ai/ha
How it was run: as §1

[8] = test system: windgrass (Apera spica-venti); assay: Test C postemergence; type: in vivo; conditions: for Plant response rating, Windgrass: scale 0 to 100; for pest or weed control at 62 g/ha / pest or weed control at 125 g/ha: Apera spica-venti, post-emergence, scale 0 to 100 (0 no effect, 100 complete control), read-out: Windgrass plant response rating; for pest or weed control at 62 g/ha: 62 g ai/ha; for pest or weed control at 125 g/ha: 125 g ai/ha
How it was run: as §1

[9] = test system: winter barley (Hordeum vulgare); assay: Test C postemergence; type: in vivo; conditions: for Plant response rating, Barley: scale 0 to 100; for plant injury at 62 g/ha: Hordeum vulgare, post-emergence, 62 g ai/ha, scale 0 to 100 (0 no effect, 100 complete control), read-out: Barley plant response rating
How it was run: as §1

[10] = test system: barnyardgrass (Echinochloa crus-galli); assay: Test C flooded paddy test; type: in vivo; conditions: Flood
How it was run: (§2)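 Visual injury scores (0 = no effect, 100 = complete control) relative to untreated controls, assessed 12 to 14 days after treatment in the greenhouse. Species in the flooded paddy system—rice, barnyardgrass, duck salad, umbrella sedge—were treated at the 2-leaf stage.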

[11] = test system: duck salad (Heteranthera limosa); assay: Test C flooded paddy test; type: in vivo; conditions: Flood, scale 0 to 100
How it was run: as §2

[12] = test system: rice (Oryza sativa); assay: Test C flooded paddy test; type: in vivo; conditions: Flood, scale 0 to 100
How it was run: as §2

[13] = test system: umbrella sedge (Cyperus difformis); assay: Test C flooded paddy test; type: in vivo; conditions: Flood, scale 0 to 100
How it was run: as §2

[14] = 500 g ai/ha, scale 0 to 100 (0 no effect, 100 complete control)

Structure (SMILES): COC(=O)c1nc(C2CC2)nc(N)c1Br [Compound 2, methyl 6-amino-5-bromo-2-cyclopropyl-4-pyrimidinecarboxylate]
- Plant response rating (scale of 0 to 100), Ryegrass, Italian ([1]; 31 g ai/ha): 35
- Plant response rating, Ryegrass, Italian ([1]; 250 g ai/ha): 60
- pest or weed control at 62 g/ha [1]: 45%
- pest or weed control at 125 g/ha [1]: 60%
- Plant response rating (scale of 0 to 100), Blackgrass ([2]; 31 g ai/ha): 60
- Plant response rating, Blackgrass ([2]; 125 g ai/ha): 70
- Plant response rating, Blackgrass ([2]; 250 g ai/ha): 75
- pest or weed control at 62 g/ha [2]: 65%
- Plant response rating (scale of 0 to 100), Canarygrass ([3]; 31 g ai/ha): 30
- Plant response rating, Canarygrass ([3]; 125 g ai/ha): 40
- Plant response rating, Canarygrass ([3]; 250 g ai/ha): 40
- pest or weed control at 62 g/ha [3]: 40%
- Plant response rating (scale of 0 to 100), Bromegrass, Downy ([4]; 31 g ai/ha): 20
- Plant response rating, Bromegrass, Downy ([4]; 125 g ai/ha): 45
- Plant response rating, Bromegrass, Downy ([4]; 250 g ai/ha): 60
- pest or weed control at 62 g/ha [4]: 35%
- Plant response rating (scale of 0 to 100), Foxtail, Green ([5]; 31 g ai/ha): 55
- Plant response rating, Foxtail, Green ([5]; 250 g ai/ha): 70
- pest or weed control at 62 g/ha [5]: 55%
- pest or weed control at 125 g/ha [5]: 65%
- Plant response rating (scale of 0 to 100), Wheat ([6]; 31 g ai/ha): 20
- Plant response rating, Wheat ([6]; 250 g ai/ha): 65
- plant injury at 62 g/ha [6]: 60%
- plant injury at 125 g/ha [6]: 65%
- Plant response rating (scale of 0 to 100), Oat, Wild ([7]; 31 g ai/ha): 20
- Plant response rating, Oat, Wild ([7]; 250 g ai/ha): 60
- pest or weed control at 62 g/ha [7]: 55%
- pest or weed control at 125 g/ha [7]: 55%
- Plant response rating (scale of 0 to 100), Windgrass ([8]; 31 g ai/ha): 65
- Plant response rating, Windgrass ([8]; 250 g ai/ha): 70
- pest or weed control at 62 g/ha [8]: 65%
- pest or weed control at 125 g/ha [8]: 70%
- Plant response rating (scale of 0 to 100), Barley ([9]; 31 g ai/ha): 0
- Plant response rating, Barley ([9]; 125 g ai/ha): 60
- Plant response rating, Barley ([9]; 250 g ai/ha): 60
- plant injury at 62 g/ha [9]: 35%
- Plant response rating, Barnyardgrass ([10]; 62 g ai/ha, scale 0 to 100): 0
- Plant response rating, Barnyardgrass ([10]; 125 g ai/ha, scale 0 to 100): 20
- Plant response rating, Barnyardgrass ([10]; 250 g ai/ha, scale 0 to 100): 45
- Plant response rating, Barnyardgrass [10, 14]: 75
- Plant response rating, Ducksalad ([11]; 62 g ai/ha): 50
- Plant response rating, Ducksalad ([11]; 125 g ai/ha): 70
- Plant response rating, Ducksalad ([11]; 250 g ai/ha): 90
- Plant response rating, Ducksalad ([11]; 500 g ai/ha): 95
- Plant response rating, Rice ([12]; 62 g ai/ha): 0
- Plant response rating, Rice ([12]; 125 g ai/ha): 25
- Plant response rating, Rice ([12]; 250 g ai/ha): 45
- Plant response rating, Rice ([12]; 500 g ai/ha): 65
- Plant response rating, Sedge, Umbrella ([13]; 62 g ai/ha): 0
- Plant response rating, Sedge, Umbrella ([13]; 125 g ai/ha): 0
- Plant response rating, Sedge, Umbrella ([13]; 250 g ai/ha): 0
- Plant response rating, Sedge, Umbrella ([13]; 500 g ai/ha): 25
- melting point: 148 to 150 °C

Structure (SMILES): CCOC(=O)c1nc(C2CC2)nc(N)c1Cl [Compound 4, ethyl 6-amino-5-chloro-2-cyclopropyl-4-pyrimidinecarboxylate]
- Plant response rating, Ryegrass, Italian ([1]; 250 g ai/ha): 65
- Plant response rating, Ryegrass, Italian ([1]; 500 g ai/ha): 65
- pest or weed control at 62 g/ha [1]: 45%
- pest or weed control at 125 g/ha [1]: 60%
- Plant response rating, Blackgrass ([2]; 125 g ai/ha): 65
- Plant response rating, Blackgrass ([2]; 250 g ai/ha): 70
- Plant response rating, Blackgrass ([2]; 500 g ai/ha): 70
- pest or weed control at 62 g/ha [2]: 65%
- Plant response rating, Canarygrass ([3]; 125 g ai/ha): 45
- Plant response rating, Canarygrass ([3]; 250 g ai/ha): 60
- Plant response rating, Canarygrass ([3]; 500 g ai/ha): 60
- pest or weed control at 62 g/ha [3]: 35%
- Plant response rating, Bromegrass, Downy ([4]; 125 g ai/ha): 60
- Plant response rating, Bromegrass, Downy ([4]; 250 g ai/ha): 65
- Plant response rating, Bromegrass, Downy ([4]; 500 g ai/ha): 70
- pest or weed control at 62 g/ha [4]: 45%
- Plant response rating, Foxtail, Green ([5]; 250 g ai/ha): 70
- Plant response rating, Foxtail, Green ([5]; 500 g ai/ha): 75
- pest or weed control at 62 g/ha [5]: 65%
- pest or weed control at 125 g/ha [5]: 70%
- Plant response rating, Wheat ([6]; 250 g ai/ha): 65
- Plant response rating, Wheat ([6]; 500 g ai/ha): 65
- plant injury at 62 g/ha [6]: 50%
- plant injury at 125 g/ha [6]: 60%
- Plant response rating, Oat, Wild ([7]; 250 g ai/ha): 70
- Plant response rating, Oat, Wild ([7]; 500 g ai/ha): 70
- pest or weed control at 62 g/ha [7]: 60%
- pest or weed control at 125 g/ha [7]: 65%
- Plant response rating, Windgrass ([8]; 250 g ai/ha): 70
- Plant response rating, Windgrass ([8]; 500 g ai/ha): 75
- pest or weed control at 62 g/ha [8]: 60%
- pest or weed control at 125 g/ha [8]: 65%
- Plant response rating, Barley ([9]; 125 g ai/ha): 65
- Plant response rating, Barley ([9]; 250 g ai/ha): 65
- Plant response rating, Barley ([9]; 500 g ai/ha): 65
- plant injury at 62 g/ha [9]: 30%
- Plant response rating, Barnyardgrass ([10]; 62 g ai/ha, scale 0 to 100): 0
- Plant response rating, Barnyardgrass ([10]; 125 g ai/ha, scale 0 to 100): 60
- Plant response rating, Barnyardgrass ([10]; 250 g ai/ha, scale 0 to 100): 65
- Plant response rating, Barnyardgrass [10, 14]: 85
- Plant response rating, Ducksalad ([11]; 62 g ai/ha): 70
- Plant response rating, Ducksalad ([11]; 125 g ai/ha): 80
- Plant response rating, Ducksalad ([11]; 250 g ai/ha): 90
- Plant response rating, Ducksalad ([11]; 500 g ai/ha): 100
- Plant response rating, Rice ([12]; 62 g ai/ha): 0
- Plant response rating, Rice ([12]; 125 g ai/ha): 40
- Plant response rating, Rice ([12]; 250 g ai/ha): 75
- Plant response rating, Rice ([12]; 500 g ai/ha): 80
- Plant response rating, Sedge, Umbrella ([13]; 62 g ai/ha): 0
- Plant response rating, Sedge, Umbrella ([13]; 125 g ai/ha): 30
- Plant response rating, Sedge, Umbrella ([13]; 250 g ai/ha): 65
- Plant response rating, Sedge, Umbrella ([13]; 500 g ai/ha): 75
- melting point: 87 to 89 °C
